Source: patent US10653779B2, “Formulations with reduced oxidation” (Genentech, Inc., priority 2013, dated 2020)
“Also recorded” adds a separate entry of the source.

Columns and labels:
[1] = Cyclic voltammetry (CV) screening of oxidation potentials; format: physicochemical; conditions: for Oxidation potential relative to L-Trp (in words): cyclic voltammetry; for Oxidation Potential (anodic peak): glassy carbon working electrode, 0.2 M lithium perchlorate
Method: The oxidation/reduction characteristics of the compounds were investigated. Several compounds, including L-Trp and derivatives, were evaluated for the protection of Trp oxidation in proteins using cyclic voltammetry (CV) and rank ordered based on their oxidation potentials (Table 2). Specifically, the candidate antioxidants were dissolved in deionized water and then added to a 0.2 M lithium perchlorate electrolyte solution. […] Solutions were scanned from −0.10 V to +1.50 V at a scan rate of either 100 or 500 mV/sec. The analytical cell was purged for four minutes with nitrogen before scanning of each antioxidant solution. The input was a linear scan of the potential of a working electrode, and the output was measurement of the resulting current. […] Redox reactions were characterized by sharp increases or decreases in current (peaks). The potential at which an oxidation reaction occurred was referred to as the anodic peak potential (or oxidation potential), and the potential at which a reduction occurred was referred to as is the cathodic peak (or reduction) potential.

[2] = Photosensitivity screening: H2O2 formation by antioxidant candidates upon light exposure (Amplex Ultra Red Assay); format: physicochemical; conditions: for (H2O2 produced by Compound)/(H2O2 produced by L-Trp): 1 mM in 20 mM histidine acetate pH 5.5, four hours of light at 250 W/m^2; for H2O2 production upon light exposure compared to L-Trp (in words) / H2O2 produced in comparison to L-Trp (times more): 1 mM, 20 mM L-His-acetate pH 5.5, 4 h light; for H2O2 production upon light exposure compared to L-Trp (in words): 0.22 million lux hours
Method: As a screening tool, antioxidant candidates were exposed to light for four hours at 250 W/m^2 and the resulting H2O2 formation was quantified by the Amplexassay. Specifically, antioxidants were prepared to 1 mM in 20 mM histidine acetate buffer at pH 5.5. The 1 mM antioxidant solutions were aliquoted into glass vials (2 mL/glass vial) and exposed to four hours of light at 250 W/m^2 in an Atlas SunTest CPS+ Xenon Test Instrument (Chicago, Ill.). Total UV dose was 90 watt-hours/square meter and total visible dose was 0.22 million lux hours over the 4-hour period. Control vials were wrapped in aluminum foil and treated similarly. The amount of hydrogen peroxide generated after exposure to light was measured using the Amplex® Ultra Red Assay (Invitrogen, Carlsbad, Calif.) following the manufacturer's recommended procedure. On addition of horseradish peroxidase (HRP), the dye reacted 1:1 stoichiometrically with H2O2, resulting in the production of fluorescent oxidation product resorufin. In this study, fluorescence readings were obtained using a Spectra Max M2 Micro-plate Reader (Molecular Devices, Sunnyvale, Calif.) with excitation and emission set at 560 nm and 590 nm, respectively. Final H2O2 concentrations were determined using a standard curve ranging from 0 μm to 20 μm. […]

mAb1 [3] = assay: mAb1 light stress study, 16 hours; Fab/Fc oxidation by RP-HPLC; format: physicochemical, human; conditions: 16 hours of light at 250 W/m^2, excipient 1 mM
Method: (§1) The fragments were reduced with DTT, and then separated and identified via Liquid Chromatography-Mass Spectrometry (LC-MS). […] Comparison of area integrated under the oxidized and native peaks was used to quantify HC Fab and Fc oxidation. […] By using the papain digest RP-HPLC method in the present study it was possible to investigate Trp residue oxidation by quantifying HC Fab oxidation, and Met residue oxidation by quantifying HC Fc oxidation.
Antioxidants were added at 1 mM. Glass vials containing these formulations were exposed to 250 W/m^2 light in an Atlas SunTest CPS+ Xenon Test Instrument (Chicago, Ill.). Control vials were wrapped in aluminum foil and treated similarly. After light exposure, solutions were prepared for analysis by reverse-phase HPLC as described above.

mAb1 [4] = assay: mAb1 AAPH stress study; Fab/Fc oxidation by RP-HPLC; format: physicochemical, human; conditions: AAPH, 24 hours at 40° C.; antioxidants at 1 mM; label mAb1 = no excipient
From the text: as §1
% Fab oxidation and % Fc oxidation were calculated as follows: […]
Antioxidants were added at 1 mM. […] After buffer exchange, each solution was prepared for analysis by reverse-phase HPLC as described above.

mAb1 [5] = assay: mAb1 light stress, eight hours, with L-Trp and L-Met; Fab/Fc oxidation by papain digest RP-HPLC; format: physicochemical, human; conditions: 8 h light at 250 W/m^2
Method: L-tryptophan (L-Trp), an antioxidant used in protein formulations, has been recently shown to be photosensitive (Igarashi et al., Anal Sci 23(8):943-8 (2007)) and to have the ability to produce H2O2 upon light exposure. […] Control vials were wrapped in aluminum foil and treated similarly. After light exposure, solutions were prepared for analysis by reverse-phase HPLC. […] Following incubation, 900 μL of the solution was combined with 100 μL of 1 M dithiothreitol (DTT) and incubated for another thirty minutes at 37° C. Samples were then run on an Agilent, Inc. 1100/1200 HPLC system (Santa Clara, Calif.) equipped with UV detection at 280 nm in conjunction with a Varian, Inc. Pursuit 3 μm, 2 mm ID×250 mm diphenyl column (Palo Alto, Calif.). Mobile Phase A was 0.1% TFA in water. Mobile Phase B was 0.1% TFA in acetonitrile. The mobile phase gradient increased linearly from 34% B at 0 minutes to 43% B at 50.0 minutes, then to 95% B at 50.1 minutes. The gradient remained at 95% B until 60.1 minutes, and then decreased linearly from 95% B to 34% B between 60.1 and 60.2 minutes. The gradient remained at 34% B until the end of the cycle at 80.2 minutes. The column temperature was 65° C., total flow rate was 0.2 mL/min, and injection volume of each sample was 6 μL. Chromatograms were then integrated for quantification of oxidation.

Compound	Oxidation potential relative to L-Trp (in words) [1]	Oxidation Potential (anodic peak) [1] [V vs Ag/AgCl]	(H2O2 produced by Compound)/(H2O2 produced by L-Trp) [2]	H2O2 production upon light exposure compared to L-Trp (in words) [2]	also measured
O=C(O)Cc1c[nH]c2ccc(O)cc12 [5-Hydroxyindole-3-Acetic Acid, 5-Hydroxy Indole-3-Acetic Acid]	–	0.535	0.11	low levels of H2O2 production	–
Oc1cccc2cc[nH]c12 [7-Hydroxyindole, 7-Hydroxy Indole]	–	–	−0.03	–	Effect on light-induced Fab oxidation (in words) (mAb1 [3]): reducing Fab oxidation to near control levels; Fab (Trp residue) oxidation of mAb1 after AAPH incubation (mAb1 [4]): about 2%
O=C(O)c1cc(O)ccc1O [5-Hydroxysalicylic Acid, 5-Hydroxy Salicylic Acid]	–	–	0.84	–	–
c1ccc2[nH]ccc2c1 [Indole]	significantly lower oxidation potential than L-Trp	–	0.95	behaved similarly to L-Trp	–
Cc1c(C)c2c(c(C)c1O)CCC(C)(C(=O)O)O2 (stereo not drawn) [Trolox]	–	–	122.75	–	H2O2 produced in comparison to L-Trp (times more) [2]: 123 times
NC(Cc1c[nH]c2ccc([N+](=O)[O-])cc12)C(=O)O (racemic) [5-nitro-DL-tryptophan]	higher oxidation potential than L-Trp	1.055	–	–	–
Cc1ncc(CO)c(CO)c1O [Pyridoxine]	–	–	5.16	–	H2O2 produced in comparison to L-Trp (times more) [2]: 5 times
Nc1ccccc1C(=O)O [Anthranilic Acid]	–	–	2.50	twice as much H2O2	–
Nc1ccc(O)cc1C(=O)O [5-Hydroxyanthranilic Acid, 5-Hydroxy Anthranilic Acid]	–	–	0.44	half as much H2O2	–
O=C(O)c1cc2cccc(O)c2[nH]1 [7-Hydroxyindole-2-Carboxylic Acid, 7-Hydroxy Indole-2-Carboxylic Acid]	–	–	0.15	–	–
O=C(O)Cc1c[nH]c2ccccc12 [Indole-3-Acetic Acid]	higher oxidation potential than L-Trp	0.948	2.40	twice as much H2O2; also recorded: two times more; also recorded: produced more H2O2	–
COc1ccc2[nH]cc(CCNC(C)=O)c2c1 [N-acetyl-5-methoxytryptamine]	–	0.730	0.28	less than a third of the H2O2	–
NCCc1c[nH]c2ccccc12 [Tryptamine]	higher oxidation potential than L-Trp	1.010	0.53	about half as much H2O2	H2O2 production upon light exposure compared to L-Trp (in words) ([2]; listed as tryptamine): two times less
Nc1ccc2[nH]cc(C[C@H](N)C(=O)O)c2c1 (racemic) [5-Amino-DL-Trp, 5-Amino-Tryptophan]	–	0.410	0.29	low levels of H2O2 production	–
CSCC[C@H](N)C(=O)O [L-Met, L-methionine]	–	–	–	–	Effect on Fab oxidation of mAb1 (in words) (mAb1 [5]; 10, 25, 50, 100 mM L-Met added to formulation containing 1 mM L-Trp): appeared to reduce Fab oxidation slightly; Effect on Fc oxidation of mAb1 (in words) (mAb1 [5]; L-Met 10, 25, 50, 100 mM added to 1 mM L-Trp, label mAb1 = No Excipient): reduced the amount of Fc oxidation
Oc1cccc2[nH]ccc12 [4-Hydroxyindole, 4-Hydroxy Indole]	–	–	0.00	–	–

The next lines start with results.

Oxidation potential relative to L-Trp (in words) [1]	Oxidation Potential (anodic peak) [1] [V vs Ag/AgCl]	Compound	(H2O2 produced by Compound)/(H2O2 produced by L-Trp) [2]	H2O2 production upon light exposure compared to L-Trp (in words) [2]	also measured
higher oxidation potential than L-Trp	0.965	N[C@@H](Cc1c[nH]c2ccc(F)cc12)C(=O)O [5-Fluoro-L-Trp, 5-Fluoro-Tryptophan]	0.71	produced more H2O2	–
–	0.890	COc1ccc2[nH]cc(C[C@H](N)C(=O)O)c2c1 (racemic) [5-Methoxy-DL-Trp, 5-Methoxy-Tryptophan]	1.05	produced more H2O2	–
–	0.600	NCCc1c[nH]c2ccc(O)cc12 [Serotonin (5-Hydroxytryptamine), 5-hydroxytryptamine]	0.03	very little H2O2; also recorded: low levels of H2O2 production	Effect on light-induced Fab oxidation (in words) (mAb1 [3]): reducing Fab oxidation to near control levels; Fab (Trp residue) oxidation of mAb1 after AAPH incubation (mAb1 [4]): about 2%
higher oxidation potential than L-Trp	1.040	Nc1ccccc1C(=O)CC(N)C(=O)O [L-Kynurenine, Kynurenine]	0.20	–	H2O2 production upon light exposure compared to L-Trp (in words) ([2]; listed as L-kynurenine): did not produce much H2O2; H2O2 production upon light exposure compared to L-Trp (in words) ([2]; listed as kynurenine): about one fifth of the H2O2
–	0.875	CC(=O)N[C@@H](Cc1c[nH]c2ccccc12)C(=O)O [N-Acetyl-L-Trp, N-Acetyl-Tryptophan]	0.31	–	–
higher oxidation potential than L-Trp	1.015	NC(=O)[C@@H](N)Cc1c[nH]c2ccccc12 [L-Trpamide, Tryptophanamide]	0.43	–	Fc oxidation under light stress compared to no excipient control (in words) (mAb1 [3]): more Fc oxidation; Fab oxidation increase over the control level (mAb1 Ref Mat) (mAb1 [3]; label mAb1 = No Excipient): 8 fold
